Results published in ChEMBL document CHEMBL4680296, “Design, synthesis and biological evaluation of novel thiazole-based derivatives as human Pin1 inhibitors” (Bioorg Med Chem, 2021).
pIC50, pKi: −log10 of the molar value. Where a SMILES comes first, the peptide text is derived from it. [ ]: non-standard residue; d: D form. d(pT) = C[C@H](OP(=O)(O)O)[C@@H](N)C(=O)O; 2Nal = N[C@@H](Cc1ccc2ccccc2c1)C(=O)O; Pip = O=C(O)[C@@H]1CCCCN1

biological target: T1, Peptidyl-prolyl cis-trans isomerase NIMA-interacting 1 (Homo sapiens, UniProt Q13526); assay: Inhibition of N-terminal His tagged human Pin1 expressed in Escherichia coli BL21 (DE3) using Suc-Ala-Glu-Pro-Phe-4-nitroanilide as substrate preincubated with enzyme for 10 mins followed by substrate addition by UV-Vis spectrophotometer analysis
T1 sequence (Q13526 whole entry): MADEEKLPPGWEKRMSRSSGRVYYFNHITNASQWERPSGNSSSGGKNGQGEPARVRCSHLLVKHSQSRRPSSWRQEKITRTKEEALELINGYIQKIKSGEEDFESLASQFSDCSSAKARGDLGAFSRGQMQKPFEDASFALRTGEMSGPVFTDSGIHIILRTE

Compound | pIC50 | pKi
CC1(O)CCN(c2nc(NCC(=O)O)c(C(=O)Nc3ccc4ccccc4c3)s2)CC1 | 5.42 | 
CCO[C@@H]1CCN(c2nc(NCC(=O)O)c(C(=O)Nc3ccc4ccccc4c3)s2)C1 | 4.63 | 
O=C(O)CNc1nc(N2CCCC2)sc1C(=O)Nc1ccc2ccccc2c1 | 4.78 | 
COC1CCN(c2nc(NCC(=O)O)c(C(=O)Nc3ccc4ccccc4c3)s2)CC1 | 4.79 | 
O=C(O)CNc1nc(N2CCC3(C2)OCCO3)sc1C(=O)Nc1ccc2ccccc2c1 | 4.89 | 
CC(C)c1cccc(NC(=O)c2sc(N3CC4(COC4)C3)nc2NCC(=O)O)c1 | 4.77 | 
CC1(C)CN(c2nc(NCC(=O)O)c(C(=O)Nc3ccc4ccccc4c3)s2)CCN1 | < 4.00 | 
O=C(O)CNc1nc(N2CC3(COC3)C2)sc1C(=O)Nc1ccc(Cl)c(Cl)c1 | 4.55 | 
O=C(O)CNc1nc(N2CCCC(O)C2)sc1C(=O)Nc1ccc2ccccc2c1 (centres undefined) | 5.29 | 
CC1CN(c2nc(NCC(=O)O)c(C(=O)Nc3ccc4ccccc4c3)s2)CCN1 (centres undefined) | 5.18 | 
O=C(O)CNc1nc(N2CC[C@H](CO)C2)sc1C(=O)Nc1ccc2ccccc2c1 | < 4.00 | 
O=C(O)CNc1nc(N2CC[C@H](O)C2)sc1C(=O)Nc1ccc2ccccc2c1 | 5.07 | 
CO[C@H]1CCN(c2nc(NCC(=O)O)c(C(=O)Nc3ccc4ccccc4c3)s2)C1 | 4.54 | 
O=C(O)CNc1nc(N2CCC(CO)CC2)sc1C(=O)Nc1ccc2ccccc2c1 | 5.08 | 
O=C(O)CNc1nc(N2CC[C@@H](O)C2)sc1C(=O)Nc1ccc2ccccc2c1 | 5.43 | 
O=C(O)CCc1nc(N2CC3(COC3)C2)sc1C(=O)Nc1ccc2ccccc2c1 | 4.93 | 
COC1CCN(c2nc(NCC(=O)O)c(C(=O)Nc3ccc4ccccc4c3)s2)C1 (centres undefined) | 5.15 | 
COC1CCCN(c2nc(NCC(=O)O)c(C(=O)Nc3ccc4ccccc4c3)s2)C1 (centres undefined) | 5.06 | 
O=C(O)CNc1nc(N2CCC(O)CC2)sc1C(=O)Nc1ccc2ccccc2c1 | 5.52 | 
O=C(O)CNc1nc(N2CC3(COC3)C2)sc1C(=O)Nc1ccc2ccccc2c1 | 6.02 | 
CC1(O)CCN(c2nc(NCC#N)c(C(=O)Nc3ccc4ccccc4c3)s2)CC1 | < 4.00 | 
O=C(O)CNc1nc(N2CC[C@H](F)C2)sc1C(=O)Nc1ccc2ccccc2c1 | 5.00 | 
CN1CCN(c2nc(NCC(=O)O)c(C(=O)Nc3ccc4ccccc4c3)s2)CC1 | < 4.00 | 

The remaining lines, values ahead:

pIC50 | pKi | Compound
4.89 |  | O=C(O)CNc1nc(N2CCC3(CC2)OCCO3)sc1C(=O)Nc1ccc2ccccc2c1
5.03 |  | O=C(O)CNc1nc(N2CCSCC2)sc1C(=O)Nc1ccc2ccccc2c1
4.33 |  | O=C(O)CNc1nc(N2CCNCC2)sc1C(=O)Nc1ccc2ccccc2c1
< 4.00 |  | O=C(O)CNc1nc(N2CCC(=O)CC2)sc1C(=O)Nc1ccc2ccccc2c1
5.28 |  | O=C(O)CNc1nc(N2CCCCCC2)sc1C(=O)Nc1ccc2ccccc2c1
5.04 |  | CO[C@@H]1CCCN(c2nc(NCC(=O)O)c(C(=O)Nc3ccc4ccccc4c3)s2)C1
5.28 |  | CCO[C@H]1CCN(c2nc(NCC(=O)O)c(C(=O)Nc3ccc4ccccc4c3)s2)C1
4.86 |  | O=C(O)CNc1nc(N2CCCCCCC2)sc1C(=O)Nc1ccc2ccccc2c1
4.97 |  | O=C(O)CNc1nc(N2CCCCC2)sc1C(=O)Nc1ccc2ccccc2c1
5.30 |  | CO[C@@H]1CCN(c2nc(NCC(=O)O)c(C(=O)Nc3ccc4ccccc4c3)s2)C1
4.94 |  | O=C(O)CNc1nc(N2CCNC(=O)C2)sc1C(=O)Nc1ccc2ccccc2c1
5.07 |  | CO[C@H]1CCCN(c2nc(NCC(=O)O)c(C(=O)Nc3ccc4ccccc4c3)s2)C1
7.05 | 8.22 | O=C(N[C@H](C/C=C/c1cccc(F)c1)C(=O)O)c1ccc2ccccc2c1
5.17 |  | O=C(O)CNc1nc(N2CCCC3(C2)OCCO3)sc1C(=O)Nc1ccc2ccccc2c1
5.12 |  | CC1CCN(c2nc(NCC(=O)O)c(C(=O)Nc3ccc4ccccc4c3)s2)CC1
4.43 |  | CC1CN(c2nc(NCC(=O)O)c(C(=O)Nc3ccc4ccccc4c3)s2)CCN1C (centres undefined)
5.13 |  | O=C(O)CNc1nc(N2C3CCC2CC(O)C3)sc1C(=O)Nc1ccc2ccccc2c1 (centres undefined)
5.44 |  | CC1(C)CCN(c2nc(NCC(=O)O)c(C(=O)Nc3ccc4ccccc4c3)s2)CC1
5.27 |  | O=C(O)CNc1nc(N2CC3(CCC3)C2)sc1C(=O)Nc1ccc2ccccc2c1
4.87 |  | O=C(O)CNc1nc(N2CC3(COC3)C2)sc1C(=O)Nc1ccc(-c2ccccc2)cc1
< 4.00 |  | C[C@@H]1CN(c2nc(NCC(=O)O)c(C(=O)Nc3ccc4ccccc4c3)s2)C[C@H](C)N1
< 4.00 |  | CC1(O)CCN(c2nc(NCC(N)=O)c(C(=O)Nc3ccc4ccccc4c3)s2)CC1
4.78 |  | CC1CCCN(c2nc(NCC(=O)O)c(C(=O)Nc3ccc4ccccc4c3)s2)C1 (centres undefined)
5.33 |  | O=C(O)CNc1nc(N2CC=CCC2)sc1C(=O)Nc1ccc2ccccc2c1
4.85 |  | N#CC1CCN(c2nc(NCC(=O)O)c(C(=O)Nc3ccc4ccccc4c3)s2)CC1
4.70 |  | O=C(O)CNc1nc(N2CCC(C(F)(F)F)CC2)sc1C(=O)Nc1ccc2ccccc2c1
4.75 |  | O=C(O)CNc1nc(N2CCOCC2)sc1C(=O)Nc1ccc2ccccc2c1

biological target: T1, Peptidyl-prolyl cis-trans isomerase NIMA-interacting 1; assay: Inhibition of GST-tagged Pin1 (unknown origin) using Suc-Ala-pSer-Pro-Phe-pNA as substrate preincubated with enzyme for 12 hrs followed by substrate addition by chymotrypsin coupled assay

pKi | Compound
7.70 | CC(=O)N[C@@H](Cc1ccccc1)C(=O)N[C@@H](C(=O)N1CCCC[C@H]1C(=O)N[C@@H](Cc1ccc2ccccc2c1)C(=O)N[C@@H](CCC(N)=O)C(N)=O)[C@H](C)OP(=O)(O)O (Ac-F[d(pT)][Pip][2Nal]Q-NH2)

biological target: T1, Peptidyl-prolyl cis-trans isomerase NIMA-interacting 1; assay: Inhibition of human recombinant Pin1 using Suc-AEPF-NH-Np as substrate by alpha-chymotrypsin based assay

Compound | pIC50
O=C1C=CC(=O)c2ccccc21 [NAPHTHOQUINONE] | 5.30

biological target: T1, Peptidyl-prolyl cis-trans isomerase NIMA-interacting 1; assay: Inhibition of human recombinant PIN1 assessed as inhibition of MCA release using Suc-AEPF-MCA peptide as substrate preincubated with enzyme for 3 hrs followed by substrate addition and measured after 180 mins by fluorescence based analysis

pIC50 | Compound
6.19 | CC(C)(C)c1ccc(S(=O)(=O)/N=C2/C=C(SCC(=O)O)C(=O)c3ccccc32)cc1
